Each structure is given as a SMILES string. pIC50: −log10 of the molar value. In brackets after ≈: the same amount, converted by molar mass. Activity calls are given as the source filed them. The rule behind the calls is not given here.

Data set [1] in a line: Cytotoxicity against human PMF-ko14 cells measured after 3 days. Format: functional, cell-based. Conditions: PMF-ko14, 72 h.
The nature of data set [2]: Cytotoxicity against human MOLM16 cells measured after 3 days. Format: functional, cell-based, MOLM-16. Conditions: MOLM16, 72 h.
The test system of a further data set is SUP-B15. As to the kind of experiment: Cytotoxicity against human SUP-B15 cells measured after 3 days. Format: functional, cell-based. Conditions: SUP-B15, 72 h.
A further data set deals with ES-2. In words: Cytotoxicity against human ES2 cells measured after 3 days. Format: functional, cell-based. Conditions: ES-2, 72 h.
For another data set, the system named is HCC2935. In words: Cytotoxicity against human HCC2935 cells after 8 days. Conditions: HCC2935, 192 h. Format: functional, cell-based.
Data set [3] in a line: Cytotoxicity against human 59M cells measured after 3 days. Format: functional, cell-based. The note with it: 72 h.
The next data set has as its system KU812 cell line. In words: Cytotoxicity against human KU812 cell line measured after 3 days. Format: functional, cell-based. Conditions: KU812, 72 h.
For a further data set, the system named is OPM-2. As to the kind of experiment: Cytotoxicity against human OPM-2 cells measured after 3 days. Format: functional, cell-based. The note with it: OPM-2, 72 h.
The next data set deals with OCI-LY19. As to the kind of experiment: Cytotoxicity against human OCILY19 cells measured after 3 days. The note with it: OCI-LY19, 72 h. Format: functional, cell-based.
The nature of data set [4]: Cytotoxicity against human YMB-1 cells measured after 3 days. The note with it: YMB-1, 72 h. Format: functional, cell-based.
Data set [5] addresses T1, Bromodomain-containing protein 9 (Homo sapiens) (UniProt Q9H8M2).
T1 sequence (whole entry): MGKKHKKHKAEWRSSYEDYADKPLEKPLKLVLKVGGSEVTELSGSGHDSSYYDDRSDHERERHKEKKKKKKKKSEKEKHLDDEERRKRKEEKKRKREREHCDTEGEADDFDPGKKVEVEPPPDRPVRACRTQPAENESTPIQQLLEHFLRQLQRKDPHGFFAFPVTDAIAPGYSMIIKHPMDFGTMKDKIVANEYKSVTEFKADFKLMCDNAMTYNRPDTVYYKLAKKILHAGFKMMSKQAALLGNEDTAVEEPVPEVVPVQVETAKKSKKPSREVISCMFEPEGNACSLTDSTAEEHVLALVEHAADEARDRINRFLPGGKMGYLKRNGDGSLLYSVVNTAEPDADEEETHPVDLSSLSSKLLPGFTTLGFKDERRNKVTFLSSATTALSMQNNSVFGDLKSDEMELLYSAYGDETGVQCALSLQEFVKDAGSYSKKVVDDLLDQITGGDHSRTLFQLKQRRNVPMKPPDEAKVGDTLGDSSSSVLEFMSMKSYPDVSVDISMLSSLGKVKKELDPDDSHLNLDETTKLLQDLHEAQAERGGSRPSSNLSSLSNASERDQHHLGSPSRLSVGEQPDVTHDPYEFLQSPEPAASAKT
As to the kind of experiment: Inhibition of BRD9 in human PC-9 cells assessed as reduction in ALDH1A1 gene expression at 0.5 uM preincubated with erlotinib for 8 days followed by compound addition and measured after 24 hrs by RNA sequencing analysis. Format: cell-based.

Data set [6] can be described thus: Cytotoxicity against human COV318 cells measured after 3 days. Format: functional, cell-based. The note with it: COV318, 72 h.
The nature of data set [7]: Cytotoxicity against human COV434 cells measured after 3 days. Format: functional, cell-based. The note with it: COV434, 72 h.
In a further data set the test system is OCI-AML-5. As to the kind of experiment: Cytotoxicity against human OCI-AML5 cells measured after 3 days. Format: functional, cell-based. The note with it: OCI-AML-5, 72 h.
The test system of a further data set is HCC1395. As to the kind of experiment: Cytotoxicity against human HCC1395 cells measured after 3 days. Format: functional, cell-based. The note with it: HCC1395, 72 h.
The subject of another data set is SU-DHL-1. As to the kind of experiment: Cytotoxicity against human SU-DHL-1 cells measured after 3 days. The note with it: SU-DHL-1, 72 h. Format: functional, cell-based.
The test system of another data set is OVCAR-5. As to the kind of experiment: Cytotoxicity against human OVCAR-5 cells measured after 3 days. Format: functional, cell-based. Conditions: OVCAR-5, 72 h.
For the next data set, the system named is CAL-148. In words: Cytotoxicity against human CAL-148 cells measured after 3 days. Format: functional, cell-based. The note with it: CAL-148, 72 h.
A short description of data set [8]: Cytotoxicity against human OVCA432 cells measured after 3 days. Format: functional, cell-based. The note with it: OVCA432, 72 h.
Another data set deals with SU-DHL-6. In words: Cytotoxicity against human SU-DHL-6 cells measured after 3 days. Format: functional, cell-based. Conditions: SU-DHL-6, 72 h.
Data set [9] in a line: Cytotoxicity against human ONCO-DG-1 cells measured after 3 days. Format: functional, cell-based. The note with it: ONCO-DG-1, 72 h.
For another data set, the system named is PC-3. As to the kind of experiment: Cytotoxicity against human PC-3 cells measured after 3 days. Format: functional, cell-based. Conditions: PC-3, 72 h.
A short description of data set [10]: Cytotoxicity against human NCE-G 124 cells measured after 3 days. Format: functional, cell-based. The note with it: NCE-G 124, 72 h.
For a further data set, the system named is DB. In words: Cytotoxicity against human DB cells measured after 3 days. The note with it: 72 h. Format: functional, cell-based.
Data set [11] can be described thus: Kinetic solubility of the compound. Format: physicochemical. The note with it: read-out: Kinetic_solubility.
The nature of data set [12]: Cytotoxicity against human OVCA429 cells measured after 3 days. Format: functional, cell-based. Conditions: OVCA429, 72 h.
A further data set concerns PEO1. As to the kind of experiment: Cytotoxicity against human PEO1 cells measured after 3 days. Format: functional, cell-based. The note with it: PEO1, 72 h.
Data set [13] in a line: Cytotoxicity against human HCC1623 cells measured after 3 days. Format: functional, cell-based. Conditions: HCC1623, 72 h.
For the next data set, the system named is Rec1. As to the kind of experiment: Cytotoxicity against human REC1 cells measured after 3 days. Format: functional, cell-based. Conditions: Rec1, 72 h.
The next data set has as its system KMS-11. In words: Cytotoxicity against human KMS-11 cells measured after 3 days. Format: functional, cell-based. Conditions: KMS-11, 72 h.
Another data set deals with EFO-27. As to the kind of experiment: Cytotoxicity against human EFO-27 cells measured after 3 days. Conditions: EFO-27, 72 h. Format: functional, cell-based.
A further data set deals with SET-2. In words: Cytotoxicity against human SET2 cells measured after 3 days. Format: functional, cell-based. The note with it: SET-2, 72 h.
Data set [14] is described as follows: Cytotoxicity against human NCI-H2073 cells measured after 8 days. Format: functional, cell-based. The note with it: NCI-H2073, 192 h.
The nature of data set [15]: Cytotoxicity against human SUM52PE cells measured after 3 days. Format: functional, cell-based. Conditions: 72 h.
The nature of data set [16]: Cytotoxicity against human UKE-1 cells measured after 3 days. Format: functional, cell-based. Conditions: UKE1, 72 h.
Another data set relates to CAL-12T. As to the kind of experiment: Cytotoxicity against human CAL-12T cells measured after 3 days. Format: functional, cell-based. The note with it: 72 h.
Data set [17] in a line: Cytotoxicity against human RKOE6 cells measured after 3 days. Format: functional, cell-based. The note with it: RKOE6, 72 h.
For the next data set, the system named is MCF7. In words: Cytotoxicity against human MCF-7-SER cells measured after 8 days. Format: functional, cell-based. Conditions: MCF7, 192 h.
The test system of a further data set is SK-OV-3. In words: Cytotoxicity against human SK-OV-3 cells measured after 3 days. Format: functional, cell-based. Conditions: SK-OV-3, 72 h.
The subject of the next data set is T47D. In words: Cytotoxicity against human T47D cells measured after 3 days. Format: functional, cell-based. The note with it: 72 h.
For another data set, the system named is EOL1. In words: Cytotoxicity against human EOL1 cells measured after 3 days. Format: functional, cell-based. Conditions: EOL1, 72 h.
In a further data set the test system is HuCCT-1. In words: Cytotoxicity against human HuCCT-1 cells measured after 3 days. Format: functional, cell-based. The note with it: HuCCT-1, 72 h.
Data set [18] is described as follows: Cytotoxicity against human NCE-G 111 cells measured after 3 days. Format: functional, cell-based. Conditions: NCE-G 111, 72 h.
Data set [19] can be described thus: Cytotoxicity against human COV362.4 cells measured after 3 days. The note with it: COV362.4, 72 h. Format: functional, cell-based.
Data set [20] is described as follows: Cytotoxicity against human ATRFLOX cells measured after 3 days. The note with it: 72 h. Format: functional, cell-based.
The test system of the next data set is BT-474. In words: Cytotoxicity against human BT-474 cells measured after 3 days. Format: functional, cell-based. Conditions: BT-474, 72 h.
The subject of a further data set is MDA-MB-231. In words: Antiproliferative activity against human MDA-MB-231 cells assessed as reduction in colony formation upto 20 uM supplemented with fresh medium containing compound every 3 days for 9 days by MTT staining based clonogenic assay. The note with it: time 9.0 day. Format: functional, cell-based.
Another data set deals with THP-1. In words: Cytotoxicity against human THP-1 cells measured after 8 days. Conditions: THP-1, 192 h. Format: functional, cell-based.

In general, pIC50 refers to the negative decadic logarithm of the IC50, by convention in mol/L. A lower pIC50 goes with a large IC50. With `C/C=C/Cn1cc(-c2cc(OC)c(C(=O)N3CCOCC3)cc2OC)c2cc(C)[nH]c2c1=O`, the pIC50 in [1] is 5.30; in data set [2], 5.30; in the data set on SUP-B15 it was 5.30; in the data set with ES-2 it was 5.30; with HCC2935, 5.70; in data set [3], 5.30. Besides, the pIC50 (in the data set on KU812 cell line; in the data set on OPM-2; in the data set with OCI-LY19; in [4]; in [6]; in data set [7]) was 5.30 each time. The pIC50 (with OCI-AML-5; with HCC1395; with SU-DHL-1; with OVCAR-5; in the data set with CAL-148; in data set [8]) was 5.30 throughout. Moreover, the pIC50 (in the data set on SU-DHL-6; in [9]; in the data set on PC-3; in data set [10]; in the data set on DB; in data set [12]) was 5.30 throughout. The pIC50 (in the data set on PEO1; in [13]; in the data set with Rec1; with KMS-11; with EFO-27; in the data set with SET-2) was 5.30 in each case. The pIC50 in data set [14] was 5.70; in data set [15], 5.30; in data set [16], 5.30; with CAL-12T it was 5.30; in [17], 5.30; in the data set with MCF7, 5.70. For the same molecule, the pIC50 (in the data set on SK-OV-3; with T47D; with EOL1; in the data set on HuCCT-1; in [18]; in data set [19]) was 5.30 in each case. Besides, the pIC50 (in data set [20]; with BT-474) was 5.30 each time. Moreover, in [5], the inhibition entry is “Active”. The solubility kinetic in [11] amounted to 135 µM (≈ 61 µg/mL).

Turning to `C/C=C/Cn1cc(-c2ccc(C(C)(C)O)cc2OC)c2cc[nH]c2c1=O`, in the data set with MDA-MB-231, the result was inactive. The same molecule had a pIC50 with THP-1 of 4.79.
